{"source": "patent US6552083B1", "about": "“Agents inhibiting chronic rejection reactions after organ transplantation” (Kissei Pharmaceutical Co., Ltd., priority 1999, dated 2003)", "key": {"[1]": {"system": "coronary arteries of transplanted heart", "assay": "Test for confirming inhibitory activity against intimal thickening in transplant organ after organ transplantation (mouse heart transplantation model)", "assay_type": "in vivo, mice (DBA/2 donor, B10D2 recipient)", "text": "(§1) In a transplantation test, 4 to 6-week-old DBA/2 male mice each weighing 20 to 25 g (available from Charles River Laboratories) were used an donor animals, and 4 to 6-week-old B10D2 male mice each weighing 20 to 25 g (ava from Charles River Laboratories) were used as recipient animals. From three days before testing, mice in a control group were fed on a standard diet, and mice in a drug-treated group were given a 0.25% or 0.5% tranilast-containing diet (CE-2). On the day of testing, the heart was excised from a donor mouse and transplanted into the abdomen of a recipient mouse in accordance with the procedures described in the literature (Science, vol. 255, pp. 1125-1127 (1992)). Fourteen and twenty-eight days from the transplantation, the transplanted heart was excised and placed in formalin. Three specimens (thickness: […]) were sliced from different sites of the excised heart. Each slice was stained with Elastica van Geison stain, and the coronary arteries were observed under a microscope to calculate a vascular stenosis ratio according to the following equation: Vascular stenosis ratio (%)=[(area inside of elastica −lumen area)/area inside of elastica]×100"}, "[2]": {"system": "transplanted heart", "assay": "Test for evaluating rejection in transplant organ after organ transplantation (infiltration of lymphocytes into the tissue)", "assay_type": "in vivo, mice (DBA/2 donor, B10D2 recipient)", "text": "as §1, with “The degree” for “Vascular stenosis ratio (%)=[(area inside”, “rejection in the hearts transplanted to and excited from the recipient mice in the same manner as in Example 1 was evaluated in terms” for “elastica −lumen area)/area inside”, “the degree of infiltration of lymphocytes into the tissue in accordance with the Working Formation of the International Society for Heart and Lung Transplantation and with the following criteria. 0 . . . No infiltration of lymphocytes into the tissue was seen. 1 . . . Slight infiltration of lymphocytes into the tissue was observed. 2 . . . Medium infiltration of lymphocytes into the tissue was observed. 3 . . . Severe infiltration of lymphocytes into the tissue was observed.” for “elastica]×100”"}, "[3]": {"settings": "0.25% or 0.5% tranilast-containing diet, mouse heart transplantation"}}, "data": [{"smiles": "COc1ccc(/C=C/C(=O)Nc2ccccc2C(=O)O)cc1OC", "note": "[Tranilast, N-(3,4-dimethoxycinnamoyl)anthranililc acid]", "values": [{"measurement": "Inhibition of vascular thickening in a transplanted heart (result in words)", "setting": "[1]; [3]", "value": "dose-dependently significantly inhibits vascular thickening in a transplanted heart"}, {"measurement": "Vascular Stenosis Ratio (%)", "setting": "[1]; 0.25% tranilast-containing feed from 3 days before transplantation, 14-days post-operation, control group 70.3", "value": 55.5, "unit": "%"}, {"measurement": "Vascular Stenosis Ratio (%)", "setting": "[1]; 0.25% tranilast-containing feed, 28-days post-operation, control group 73.3", "value": 61.9, "unit": "%"}, {"measurement": "Vascular Stenosis Ratio (%)", "setting": "[1]; 0.5% tranilast-containing feed, 14-days post-operation, control group 70.3", "value": 45.5, "unit": "%"}, {"measurement": "Vascular Stenosis Ratio (%)", "setting": "[1]; 0.5% tranilast-containing feed, 28-days post-operation, control group 73.3", "value": 47.7, "unit": "%"}, {"measurement": "Infiltration of lymphocytes into the tissue (result in words)", "setting": "[2]; [3]", "value": "alleviates infiltration of lymphocytes into the tissue"}, {"measurement": "Degree of rejection", "setting": "[2]; score 0 (no) to 3 (severe) lymphocyte infiltration, 0.25% tranilast-containing feed, 14-days post-operation, control group 2.07", "value": 1.70}, {"measurement": "Degree of rejection", "setting": "[2]; score 0 to 3, 0.25% tranilast-containing feed, 28-days post-operation, control group 2.88", "value": 2.38}, {"measurement": "Degree of rejection", "setting": "[2]; score 0 to 3, 0.5% tranilast-containing feed, 14-days post-operation, control group 2.07", "value": 1.80}, {"measurement": "Degree of rejection", "setting": "[2]; score 0 to 3, 0.5% tranilast-containing feed, 28-days post-operation, control group 2.88", "value": 2.08}]}]}
